Like-named read-outs stand apart in the source and are kept apart here.
How the values were obtained:
[1] = test system: 3D human liver microtissues (hLiMT); assay: Cytotoxicity (cellular ATP) in 3D human liver microtissues, 5-6 days treatment; type: cell-based; conditions: read-out: IC50 SHORT;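 further: Hanging-drop spheroids, seven-point dilution series, re-dosed on day 3, CellTiter-Glo 2.0 luminescence, normalized to 0.5 or 1% DMSO vehicle controls on the same plate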
[2] = cited from earlier work
[3] = cited from earlier work; for DILI category: clinical, from literature and product labels
[4] = ref Chen et al 2016 / Chen et al 2011; cited from earlier work
[5] = test system: primary human hepatocytes (PHH); assay: Cytotoxicity (cellular ATP, CellTiter-Glo) in 2D plated primary human hepatocytes, 48 h treatment; type: cell-based; conditions: for IC50: read-out: Geomean IC50; for cytotoxicity IC50 detected: in words;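 on all read-outs here: 384-well plates, luminescence read-out, normalized to vehicle wells with 1% DMSO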
[6] = test system: 3D human liver microtissues (hLiMT); assay: Cytotoxicity (cellular ATP, CellTiter-Glo 2.0) in 3D human liver microtissues, 14 day repeat-dose treatment
[7] = Homo sapiens, hLiMT, 5/6 days, ATP content
[8] = human Cmax total, used for IC50/Cmax
[9] = human total plasma Cmax, ref literature values
[10] = Table 1, ref Garside et al. (2014)
[11] = clinical DILI severity category, 1-5
[12] = table S-4, ref Garside et al. 2014
[13] = 2D primary human hepatocytes (lot IZT), 48 h treatment, total cellular ATP content
[14] = read-out: Geomean IC50, decrease in total cellular ATP content, hLiMT treated for 14 days, hepatocyte lot IZT (except Dexamethasone) co-cultured with NPCs, n=1 or geometric mean
[15] = Hepatocyte, 2D primary human hepatocytes (lot IZT), 48 h treatment, total cellular ATP content
[16] = Homo sapiens, Hepatocyte, 336 h, read-out: Geomean IC50 [µM]
[17] = Homo sapiens, 336 h, read-out: IC50 LONG

Row | Structure (SMILES) | IC50 [1, 7] | Cmax [2, 8] | Cmax [2, 9] | DILI severity category [3, 10] | DILI severity category [3, 11] | DILI category ([3]; ref Garside et al. 2014) | FDA DILI Classification DILI severity score [4] | LTKB DILI classification [4] | IC50 [5, 15] | IC50 [6, 16] | other results
1 | CN(C)CCC(c1ccc(Cl)cc1)c1ccccn1 (stereo not drawn) [Chlorpheniramine] | 100 µM | 0.044 µM | 0.0437 µM | 3: Low clinical DILI concern (N = 23) | 3. Low Clinical DILI Concern | 3. Low Clinical DILI Concern | 0 | no DILI concern | – | – | DILI severity category [3, 12]: 3
2 | C[C@]12CC[C@@H]3c4ccc(O)cc4CC[C@H]3[C@@H]1CC[C@@H]2O [beta-Estradiol] | – | 0.0006 µM | 0.0006 µM | – | – | – | – | – | – | – | IC50 [5, 13]: > 100 µM; IC50 ([1]; hLiMT, 5/6 days, ATP content): 42 µM; IC50 [6, 14]: 13.5 µM
3 | CN1C[C@H](CNC(=O)OCc2ccccc2)C[C@@H]2c3cccc4c3c(cn4C)C[C@H]21 [Metergoline] | 12.3 µM | 0.07 µM | 0.07 µM | – | – | – | – | – | 20.1 µM | 7.8 µM | classification at 100 μM IC50 threshold ([5]; PHH 48 h): false positives; classification at 100 μM IC50 threshold ([6]; hLiMT 14 days): false positives
4 | CC(c1cc2ccccc2s1)N(O)C(N)=O (stereo not drawn) [Zileuton] | – | 13.1 µM | 13.1 µM | 2: High clinical DILI concern (N = 23) | 2. High Clinical DILI Concern | 2. High Clinical DILI Concern | 5 | most DILI concern | > 100 µM | > 100 µM | –
5 | COc1ccccc1Oc1c(NS(=O)(=O)c2ccc(C(C)(C)C)cc2)nc(-c2ncccn2)nc1OCCO [Bosentan] | 100 µM | – | – | 1: Severe clinical DILI (N = 23) | 1. Severe Clinical DILI | 1. Severe Clinical DILI | 7 | most DILI concern | > 200 µM | ~93 µM | cytotoxicity IC50 detected ([5]; PHH 48 h): no IC50 values were detected; DILI severity category [3, 12]: 1; IC50 [6, 17]: 93 µM
6 | O=C1[C@H](CC[C@H](O)c2ccc(F)cc2)[C@@H](c2ccc(O)cc2)N1c1ccc(F)cc1 [Ezetimibe] | 45.6 µM | – | – | – | – | – | – | – | – | – | DILI severity category [3, 12]: 3; IC50 [6, 17]: 45.5 µM
7 | COc1ccc2c(c1)c(CC(=O)O)c(C)n2C(=O)c1ccc(Cl)cc1 [Indomethacin] | 100 µM | 8.4 µM | 8.38 µM | – | – | – | – | – | > 100 µM | > 100 µM | –
8 | CC(=O)Oc1ccccc1C(=O)O [Acetylsalicylic acid] | – | 1110 µM | 1110 µM | 3: Low clinical DILI concern (N = 23) | 3. Low Clinical DILI Concern | 3. Low Clinical DILI Concern | 5 | – | > 1000 µM | > 1000 µM | –
9 | Cc1cnc(NC(=O)C2=C(O)c3ccccc3S(=O)(=O)N2C)s1 [Meloxicam] | 100 µM | 5.21 µM | 5.21 µM | – | – | – | – | – | > 100 µM | > 100 µM | –
10 | CCOC(=O)CN[C@@H](C(=O)N1CC[C@H]1C(=O)NCc1ccc(/C(N)=N\O)cc1)C1CCCCC1 [Ximelagatran] | 200 µM | 0.45 µM | 0.45 µM | – | – | – | – | – | > 200 µM | ~151 µM | IC50 ([6]; Homo sapiens, 336 h, read-out: IC50 (ATP-assay)): 121 µM; IC50 [6, 17]: 151 µM
11 | NC(=O)N1c2ccccc2C=Cc2ccccc21 [Carbamazepine] | – | 50.8 µM | 50.8 µM | 2: High clinical DILI concern (N = 23) | 2. High Clinical DILI Concern | 2. High Clinical DILI Concern | 7 | most DILI concern | > 500 µM | 267 µM | –
12 | [H]/N=C(/N)N/C(=N/[H])NCCc1ccccc1 [Phenformin] | 7.7 µM | 0.63 µM | 0.63 µM | 3: Low clinical DILI concern (N = 23) | 3. Low Clinical DILI Concern | 3. Low Clinical DILI Concern | – | – | 5.1 µM | < 12.5 µM | DILI severity category [3, 12]: 3; IC50 [6, 17]: 12.5 µM
13 | CCN(CC)CCCC(C)Nc1c2ccc(Cl)cc2nc2ccc(OC)cc12 (stereo not drawn) [Quinacrine] | 3.7 µM | – | 258 µM | – | – | – | – | – | 7.3 µM | > 2 µM | IC50 [6, 17]: 2 µM
14 | Cc1cc2c(cc1CC(=O)c1sccc1S(=O)(=O)Nc1onc(C)c1Cl)OCO2 [Sitax(s)entan] | – | 28.6 µM | 28.6 µM | 1: Severe clinical DILI (N = 23) | 1. Severe Clinical DILI | 1. Severe Clinical DILI | 8 | most DILI concern | – | – | IC50 [5, 13]: > 500 µM; cytotoxicity IC50 detected ([5]; PHH 48 h): no IC50 values were detected; IC50 [6, 14]: 249 µM
15 | CCN(CC)CCNC(=O)c1c(C)[nH]c(/C=C2\C(=O)Nc3ccc(F)cc32)c1C [Sunitinib] | – | – | 70.8 µM | 1: Severe clinical DILI (N = 23) | 1. Severe Clinical DILI | 1. Severe Clinical DILI | 8 | most DILI concern | 13.3 µM | ~2 µM | –
16 | Cc1cn([C@H]2C=C[C@@H](CO)O2)c(=O)[nH]c1=O [Stavudine] | – | 3.46 µM | 3.46 µM | 1: Severe clinical DILI (N = 23) | 1. Severe Clinical DILI | 1. Severe Clinical DILI | 8 | most DILI concern | > 500 µM | > 500 µM | –
17 | CC1(C)S[C@@H]2[C@H](NC(=O)COc3ccccc3)C(=O)N2[C@H]1C(=O)O [Penicillin V] | 100 µM | 14.3 µM | 14.3 µM | – | – | – | – | – | > 100 µM | > 100 µM | –
18 | CCC(C)n1ncn(-c2ccc(N3CCN(c4ccc(OCC5COC(Cn6cncn6)(c6ccc(Cl)cc6Cl)O5)cc4)CC3)cc2)c1=O (stereo not drawn) [Itraconazole] | – | 2.8 µM | 2.83 µM | 2: High clinical DILI concern (N = 23) | 2. High Clinical DILI Concern | 2. High Clinical DILI Concern | 8 | most DILI concern | > 25 µM | 1.6 µM | –
19 | Cn1c(=O)c2[nH]cnc2n(C)c1=O [Theophylline] | – | – | – | – | – | – | – | – | – | > 100 µM | IC50 ([5]; Homo sapiens, Hepatocyte, 48 h): > 100 µM; IC50 ([1]; Homo sapiens): 100 µM; Cmax ([2]; human, in vivo): 83.8 µM
20 | O=c1[nH]c2ccccc2n1C1CCN(CCCC(c2ccc(F)cc2)c2ccc(F)cc2)CC1 [Pimozide] | – | 0.11 µM | 0.11 µM | 3: Low clinical DILI concern (N = 23) | 3. Low Clinical DILI Concern | 3. Low Clinical DILI Concern | 0 | no DILI concern | 17.6 µM | > 6 µM | –
21 | O=C1CN(/N=C/c2ccc([N+](=O)[O-])o2)C(=O)N1 [Nitrofurantoin] | 100 µM | 21 µM | 21 µM | 2: High clinical DILI concern (N = 23) | 2. High Clinical DILI Concern | 2. High Clinical DILI Concern | 8 | most DILI concern | – | – | DILI severity category [3, 12]: 2
22 | CC(C)c1c(C(=O)Nc2ccccc2)c(-c2ccccc2)c(-c2ccc(F)cc2)n1CC[C@@H](O)C[C@@H](O)CC(=O)O [Atorvastatin] | 70.7 µM | – | – | – | – | – | – | – | – | 6 µM | –
23 | Cn1cnc([N+](=O)[O-])c1Sc1ncnc2nc[nH]c12 [Azathioprine] | – | 7.2 µM | 7.21 µM | 2: High clinical DILI concern (N = 23) | 2. High Clinical DILI Concern | 2. High Clinical DILI Concern | 5 | most DILI concern | > 100 µM | 22.2 µM | –
24 | COc1ccc2cc([C@H](C)C(=O)O)ccc2c1 [Naproxen] | 100 µM | – | – | – | – | – | – | – | – | – | –
25 | CCc1oc2ccccc2c1C(=O)c1cc(Br)c(O)c(Br)c1 [Benzbromarone] | – | 23.6 µM | 23.6 µM | 1: Severe clinical DILI (N = 23) | 1. Severe Clinical DILI | 1. Severe Clinical DILI | 8 | most DILI concern | 171 µM | 11.8 µM | –
